Reference: ChEMBL document CHEMBL2429780, “Synthesis, antimicrobial and cytotoxic activity of 2-azetidinone derivatives of pyridyl benzimidazoles” (Med Chem Res, 2013)
≈ marks a conversion by molar mass, not a printed value. Calls of active or inactive are those of the source. The rule behind the calls is not given here.

Tests used:
Aspergillus clavatus [1] = assay: Antifungal activity against Aspergillus clavatus assessed as growth inhibition after 48 hrs by broth dilution assay; type: functional
Aspergillus niger [2] = assay: Antifungal activity against Aspergillus niger assessed as growth inhibition after 48 hrs by broth dilution assay; type: functional
Candida albicans [3] = assay: Antifungal activity against Candida albicans assessed as growth inhibition after 48 hrs by broth dilution assay; type: functional
Pseudomonas aeruginosa [4] = assay: Antibacterial activity against Pseudomonas aeruginosa MTCC 1688 assessed as growth inhibition after 24 hrs by broth dilution assay; type: functional; conditions: MTCC 1688, 24 h
Staphylococcus aureus [5] = assay: Antibacterial activity against Staphylococcus aureus MTCC 96 assessed as growth inhibition after 24 hrs by broth dilution assay; type: functional; conditions: MTCC 96, 24 h
Streptococcus pyogenes [6] = assay: Antibacterial activity against Streptococcus pyogenes MTCC 442 assessed as growth inhibition after 24 hrs by broth dilution assay; type: functional; conditions: MTCC 442, 24 h
Escherichia coli [7] = assay: Antibacterial activity against Escherichia coli MTCC 443 assessed as growth inhibition after 24 hrs by broth dilution assay; type: functional; conditions: MTCC 443, 24 h
HeLa = assay: Cytotoxicity against human HeLa cells assessed as growth inhibition after 24 to 72 hrs by MTT assay; type: cell-based
Candida albicans [8] = assay: Antifungal activity against Candida albicans assessed as growth inhibition at 12.5 to 1000 ug/mL after 48 hrs by broth dilution assay; type: functional, organism-based
Aspergillus niger [9] = assay: Antifungal activity against Aspergillus niger assessed as growth inhibition at 12.5 to 1000 ug/mL after 48 hrs by broth dilution assay; type: functional, organism-based
Aspergillus clavatus [10] = assay: Antifungal activity against Aspergillus clavatus assessed as growth inhibition at 12.5 to 1000 ug/mL after 48 hrs by broth dilution assay; type: functional, organism-based
Streptococcus pyogenes [11] = assay: Antibacterial activity against Streptococcus pyogenes MTCC 442 assessed as growth inhibition at 12.5 to 1000 ug/mL after 24 hrs by broth dilution assay; type: functional, organism-based
Staphylococcus aureus [12] = assay: Antibacterial activity against Staphylococcus aureus MTCC 96 assessed as growth inhibition at 12.5 to 1000 ug/mL after 24 hrs by broth dilution assay; type: functional, organism-based
Escherichia coli [13] = assay: Antibacterial activity against Escherichia coli MTCC 443 assessed as growth inhibition at 12.5 to 1000 ug/mL after 24 hrs by broth dilution assay; type: functional, organism-based
Pseudomonas aeruginosa [14] = assay: Antibacterial activity against Pseudomonas aeruginosa MTCC 1688 assessed as growth inhibition at 12.5 to 1000 ug/mL after 24 hrs by broth dilution assay; type: functional, organism-based

For `N#Cc1c(-c2cccc(Cl)c2)cc(-c2nc3ccccc3[nH]2)nc1N`, the MIC (Aspergillus clavatus [1]) was ≥ 1000 µg/mL, the MIC (Aspergillus niger [2]) was ≥ 1000 µg/mL and the MIC (Candida albicans [3]) was ≥ 1000 µg/mL. The MIC (Pseudomonas aeruginosa [4]) was ≥ 1000 µg/mL, the MIC (Staphylococcus aureus [5]) was ≥ 1000 µg/mL and the MIC (Streptococcus pyogenes [6]) was ≥ 1000 µg/mL.

In the case of `N#Cc1c(-c2ccc(Cl)cc2)cc(-c2nc3ccccc3[nH]2)nc1N`, the MIC (Pseudomonas aeruginosa [4]) is reported as ≥ 1000 µg/mL, the MIC (Staphylococcus aureus [5]) is reported as ≥ 1000 µg/mL and the MIC (Streptococcus pyogenes [6]) is reported as ≥ 1000 µg/mL.

Work on `N#Cc1c(-c2ccccc2)cc(-c2nc3ccccc3[nH]2)nc1N1C(=O)C(Cl)C1c1ccccc1` (centres undefined) yielded an MIC (Aspergillus clavatus [1]) of 500 µg/mL (≈ 1050 µM), an MIC (Escherichia coli [7]) of 250 µg/mL (≈ 525 µM) and an IC50 (HeLa) of 81 µM. The MIC (Aspergillus niger [2]) was 250 µg/mL (≈ 525 µM), the MIC (Candida albicans [3]) was 500 µg/mL (≈ 1050 µM) and the MIC (Pseudomonas aeruginosa [4]) was 500 µg/mL (≈ 1050 µM). The MIC (Staphylococcus aureus [5]) was 250 µg/mL (≈ 525 µM) and the MIC (Streptococcus pyogenes [6]) was 500 µg/mL (≈ 1050 µM).

In the case of `Cc1ccccc1-c1cc(-c2nc3ccccc3[nH]2)nc(N2C(=O)C(Cl)C2c2ccccc2)c1C#N` (centres undefined), the MIC (Aspergillus clavatus [1]) is reported as 500 µg/mL (≈ 1020 µM), the MIC (Escherichia coli [7]) is reported as 250 µg/mL (≈ 510 µM) and the IC50 (HeLa) is reported as 66 µM. The MIC (Aspergillus niger [2]) was 1000 µg/mL (≈ 2040 µM), the MIC (Candida albicans [3]) was 500 µg/mL (≈ 1020 µM) and the MIC (Pseudomonas aeruginosa [4]) was 1000 µg/mL (≈ 2040 µM). For the same molecule, the MIC (Staphylococcus aureus [5]) was 500 µg/mL (≈ 1020 µM) and the MIC (Streptococcus pyogenes [6]) was 500 µg/mL (≈ 1020 µM).

`Cc1ccc(-c2cc(-c3nc4ccccc4[nH]3)nc(N)c2C#N)cc1` was tested, and the “growth inhibition (GI)” value (Candida albicans [8]) was “inactive”, the “growth inhibition (GI)” value (Aspergillus niger [9]) was “inactive” and the “growth inhibition (GI)” value (Aspergillus clavatus [10]) was “inactive”. For the same molecule, the “growth inhibition (GI)” value (Streptococcus pyogenes [11]) was “inactive”, the “growth inhibition (GI)” value (Staphylococcus aureus [12]) was “inactive” and the “growth inhibition (GI)” value (Escherichia coli [13]) was “inactive”. For the same molecule, the “growth inhibition (GI)” value (Pseudomonas aeruginosa [14]) was “inactive”.

`N#Cc1c(-c2ccccc2)cc(-c2nc3ccccc3[nH]2)nc1N` was tested, and the “growth inhibition (GI)” value (Candida albicans [8]) was “inactive”, the “growth inhibition (GI)” value (Aspergillus niger [9]) was “inactive” and the “growth inhibition (GI)” value (Aspergillus clavatus [10]) was “inactive”. The “growth inhibition (GI)” value (Streptococcus pyogenes [11]) was “inactive”, the “growth inhibition (GI)” value (Staphylococcus aureus [12]) was “inactive” and the “growth inhibition (GI)” value (Escherichia coli [13]) was “inactive”. For the same molecule, the “growth inhibition (GI)” value (Pseudomonas aeruginosa [14]) was “inactive”.

Work on `N#Cc1c(-c2ccccc2O)cc(-c2nc3ccccc3[nH]2)nc1N1C(=O)C(Cl)C1c1ccccc1` (centres undefined) yielded an MIC (Aspergillus clavatus [1]) of 500 µg/mL (≈ 1020 µM), an MIC (Escherichia coli [7]) of 500 µg/mL (≈ 1020 µM) and an IC50 (HeLa) of 78 µM. The MIC (Aspergillus niger [2]) was 500 µg/mL (≈ 1020 µM), the MIC (Candida albicans [3]) was 500 µg/mL (≈ 1020 µM) and the MIC (Pseudomonas aeruginosa [4]) was 500 µg/mL (≈ 1020 µM). It also gave an MIC (Staphylococcus aureus [5]) of 500 µg/mL (≈ 1020 µM) and an MIC (Streptococcus pyogenes [6]) of 500 µg/mL (≈ 1020 µM).

For `N#Cc1c(-c2ccc(Cl)cc2O)cc(-c2nc3ccccc3[nH]2)nc1N`, the “growth inhibition (GI)” value (Candida albicans [8]) was “inactive”, the “growth inhibition (GI)” value (Aspergillus niger [9]) was “inactive” and the “growth inhibition (GI)” value (Aspergillus clavatus [10]) was “inactive”. For the same molecule, the “growth inhibition (GI)” value (Streptococcus pyogenes [11]) was “inactive”, the “growth inhibition (GI)” value (Staphylococcus aureus [12]) was “inactive” and the “growth inhibition (GI)” value (Escherichia coli [13]) was “inactive”. For the same molecule, the “growth inhibition (GI)” value (Pseudomonas aeruginosa [14]) was “inactive”.

In the case of `Cc1ccccc1-c1cc(-c2nc3ccccc3[nH]2)nc(N)c1C#N`, the “growth inhibition (GI)” value (Candida albicans [8]) is reported as “inactive”, the “growth inhibition (GI)” value (Aspergillus niger [9]) is reported as “inactive” and the “growth inhibition (GI)” value (Aspergillus clavatus [10]) is reported as “inactive”. For the same molecule, the “growth inhibition (GI)” value (Streptococcus pyogenes [11]) was “inactive”, the “growth inhibition (GI)” value (Staphylococcus aureus [12]) was “inactive” and the “growth inhibition (GI)” value (Escherichia coli [13]) was “inactive”. For the same molecule, the “growth inhibition (GI)” value (Pseudomonas aeruginosa [14]) was “inactive”.

`N#Cc1c(-c2ccc([N+](=O)[O-])cc2)cc(-c2nc3ccccc3[nH]2)nc1N1C(=O)C(Cl)C1c1ccccc1` (centres undefined) was tested, and the MIC (Aspergillus clavatus [1]) was 100 µg/mL (≈ 192 µM), the MIC (Escherichia coli [7]) was 25 µg/mL (≈ 48 µM) and the IC50 (HeLa) was > 100 µM. For the same molecule, the MIC (Aspergillus niger [2]) was 100 µg/mL (≈ 192 µM), the MIC (Candida albicans [3]) was 100 µg/mL (≈ 192 µM) and the MIC (Pseudomonas aeruginosa [4]) was 12.5 µg/mL (≈ 24 µM). For the same molecule, the MIC (Staphylococcus aureus [5]) was 12.5 µg/mL (≈ 24 µM) and the MIC (Streptococcus pyogenes [6]) was 25 µg/mL (≈ 48 µM).

For `Cc1cccc(-c2cc(-c3nc4ccccc4[nH]3)nc(N3C(=O)C(Cl)C3c3ccccc3)c2C#N)c1` (centres undefined), the MIC (Aspergillus clavatus [1]) was 500 µg/mL (≈ 1020 µM), the MIC (Escherichia coli [7]) was 500 µg/mL (≈ 1020 µM) and the IC50 (HeLa) was 78.2 µM. The MIC (Aspergillus niger [2]) was 250 µg/mL (≈ 510 µM), the MIC (Candida albicans [3]) was 500 µg/mL (≈ 1020 µM) and the MIC (Pseudomonas aeruginosa [4]) was 500 µg/mL (≈ 1020 µM). It also gave an MIC (Staphylococcus aureus [5]) of 250 µg/mL (≈ 510 µM) and an MIC (Streptococcus pyogenes [6]) of 250 µg/mL (≈ 510 µM).

In the case of `N#Cc1c(-c2ccc([N+](=O)[O-])cc2)cc(-c2nc3ccccc3[nH]2)nc1/N=C/c1ccccc1`, the MIC (Pseudomonas aeruginosa [4]) is reported as 1000 µg/mL (≈ 2250 µM) and the MIC (Streptococcus pyogenes [6]) is reported as 1000 µg/mL (≈ 2250 µM).

With `N#Cc1c(-c2ccc([N+](=O)[O-])cc2)cc(-c2nc3ccccc3[nH]2)nc1N` the MIC (Pseudomonas aeruginosa [4]) was ≥ 1000 µg/mL, the MIC (Staphylococcus aureus [5]) was ≥ 1000 µg/mL and the MIC (Streptococcus pyogenes [6]) was ≥ 1000 µg/mL.

Work on `N#Cc1c(-c2ccc(Cl)cc2O)cc(-c2nc3ccccc3[nH]2)nc1N1C(=O)C(Cl)C1c1ccccc1` (centres undefined) yielded an MIC (Aspergillus clavatus [1]) of 250 µg/mL (≈ 475 µM), an MIC (Escherichia coli [7]) of 500 µg/mL (≈ 950 µM) and an IC50 (HeLa) of 91.5 µM. For the same molecule, the MIC (Aspergillus niger [2]) was 250 µg/mL (≈ 475 µM), the MIC (Candida albicans [3]) was 250 µg/mL (≈ 475 µM) and the MIC (Pseudomonas aeruginosa [4]) was 200 µg/mL (≈ 380 µM). It also gave an MIC (Staphylococcus aureus [5]) of 100 µg/mL (≈ 190 µM) and an MIC (Streptococcus pyogenes [6]) of 250 µg/mL (≈ 475 µM).

`COc1cccc(-c2cc(-c3nc4ccccc4[nH]3)nc(N)c2C#N)c1` was tested, and the “growth inhibition (GI)” value (Candida albicans [8]) was “inactive”, the “growth inhibition (GI)” value (Aspergillus niger [9]) was “inactive” and the “growth inhibition (GI)” value (Aspergillus clavatus [10]) was “inactive”. For the same molecule, the “growth inhibition (GI)” value (Streptococcus pyogenes [11]) was “inactive”, the “growth inhibition (GI)” value (Staphylococcus aureus [12]) was “inactive” and the “growth inhibition (GI)” value (Escherichia coli [13]) was “inactive”. For the same molecule, the “growth inhibition (GI)” value (Pseudomonas aeruginosa [14]) was “inactive”.

With `COc1ccc(-c2cc(-c3nc4ccccc4[nH]3)nc(N)c2C#N)cc1` the “growth inhibition (GI)” value (Candida albicans [8]) was “inactive”, the “growth inhibition (GI)” value (Aspergillus niger [9]) was “inactive” and the “growth inhibition (GI)” value (Aspergillus clavatus [10]) was “inactive”. For the same molecule, the “growth inhibition (GI)” value (Streptococcus pyogenes [11]) was “inactive”, the “growth inhibition (GI)” value (Staphylococcus aureus [12]) was “inactive” and the “growth inhibition (GI)” value (Escherichia coli [13]) was “inactive”. The “growth inhibition (GI)” value (Pseudomonas aeruginosa [14]) was “inactive”.
